Consider two molecules from article PMC10376326, “Novel Acylselenourea Derivatives: Dual Molecules with Anticancer and Radical Scavenging Activity” (Antioxidants, 2023).

A short description of experiment [1]: DPPH radical scavenging assay. It counts as biochemical. The procedure, abridged:
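Acylselenoureas at 0.003 and 0.03 mg/mL (final dilutions from DMSO stock, via methanol) mixed with DPPH• prepared at 0.04 mg/mL in methanol. Absorbance decrease at 517 nm followed 0–120 min; % scavenging calculated relative to negative control, triplicates.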
A general note: The DPPH test is a chemical assay of radical scavenging.

In experiment [2] the test system is HTB-54 (lung) cancer cell line. The experiment in a line: MTT cell viability assay, HTB-54. To be noted: for activity at 10 µM: read-out: Cell growth %, HTB-54, 10 µM, 48 h, MTT; for activity at 50 µM: read-out: Cell growth %, HTB-54, 50 µM, 48 h, MTT; for SI: IC50 (BEAS-2B)/IC50 (HTB-54). It counts as cell-based, human. (Tetrazolium assays rely on reduction of a dye to a coloured formazan, in cell work by metabolically active cells.)

For experiment [3], the system named is DU-145 (prostate) cancer cell line. The experiment in a line: MTT cell viability assay, DU-145. The format is cell-based, human. To be noted: Homo sapiens, DU-145, 48 h; for activity at 10 µM: read-out: Cell growth %, DU-145, 10 µM, 48 h, MTT; for activity at 50 µM: read-out: Cell growth %, DU-145, 50 µM, 48 h, MTT; for IC50: read-out: IC50 DU-145. The procedure, abridged: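 MDA-MB-231, HTB-54 and DU-145 grown in RPMI 1640, HT-29 in McCoy's 5A (10% FBS). Output is % cell growth; IC50 determined; ≥3 experiments in quadruplicate.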

The subject of another experiment is DU-145 cells. The experiment in a line: Total ROS measurement (Muse Oxidative Stress Kit). It counts as cell-based, human. Particulars: DU-145, 16 h; 1.I and 5.I 10 µM, H2O2 0.9 µM. The procedure: Total ROS levels were measured in DU-145 cells treated with 1.I and 5.I using the Muse Oxidative Stress Kit (EMD Millipore, Billerica, MA, USA) according to the manufacturer’s protocol. This kit uses Muse oxidative stress reagent to detect ROS inside cells. This kit identifies two different cell populations: ROS(−) cells and ROS(+) cells. In the graph, the ROS(−) population is represented by the M1 peak and the ROS(+) cells by the M2 peak. DU-145 cells treated with H2O2 (0.9 µM) were used as positive controls to identify M1 and M2 peaks. Percentages of ROS(−) and ROS(+) cells were measured using the Muse Cell Analyzer.

[4] abbreviates: Homo sapiens, HTB-54, 48 h, read-out: IC50 HTB-54, Lung, MTT, 48 h.

Each structure is given as a SMILES string. Read-outs that look alike come from different tables or passages of the source.

For `CCCNC(=[Se])NC(=O)c1ccco1` [Compound 1.I, N-(propylcarbamoselenoyl)furan-2-carboxamide], the inhibition is 0% in experiment [1] (0.003 mg/mL, 0 min); 1.1 ± 2% in experiment [1] (0.003 mg/mL, 5 min); 3.5 ± 2% in experiment [1] (0.003 mg/mL, 15 min); 6.6 ± 2% in experiment [1] (0.003 mg/mL, 30 min); 11.7 ± 2.3% in experiment [1] (0.003 mg/mL, 60 min); 15.5 ± 2.5% in experiment [1] (0.003 mg/mL, 90 min). The inhibition was found to be 17.5 ± 2.3% in experiment [1] (0.003 mg/mL, 120 min); 1.8 ± 1.5% in experiment [1] (0.03 mg/mL, 0 min); 10.3 ± 4.3% in experiment [1] (0.03 mg/mL, 5 min); 29.7 ± 4.1% in experiment [1] (0.03 mg/mL, 15 min); 55.4 ± 5.1% in experiment [1] (0.03 mg/mL, 30 min); 95.4 ± 4.1% in experiment [1] (0.03 mg/mL, 60 min). Besides, the inhibition in experiment [1] (0.03 mg/mL, 90 min) came out at 96.5 ± 0.7%; in experiment [1] (0.03 mg/mL, 120 min), 96.4 ± 0.6%. For the same molecule, in experiment [1] (0.03 mg/mL), the “time to reach the highest DPPH inhibition” value was 60 min. Besides, the activity at 10 µM in experiment [2] (Homo sapiens, HTB-54, 48 h) amounted to 47.1 ± 14.8%; in experiment [3], 44.9 ± 4.8%. Moreover, the activity at 50 µM came to 31.6 ± 8.2% in experiment [2] (Homo sapiens, HTB-54, 48 h) and 48.7 ± 3.1% in experiment [3]. Further, the IC50 in experiment [2] (setting [4]) was under 10 µM; in experiment [3], 9.5 ± 2.5 µM. The same molecule displayed an SI in experiment [2] of over 12.7.
Consider `CCCNC(=[Se])NC(=O)c1ccccc1` [Compound 5.I, N-(propylcarbamoselenoyl)benzamide], for which the inhibition was 1.7 ± 1.1% in experiment [1] (0.003 mg/mL, 0 min); 2.9 ± 1.1% in experiment [1] (0.003 mg/mL, 5 min); 4.6 ± 1.2% in experiment [1] (0.003 mg/mL, 15 min); 6.4 ± 1.3% in experiment [1] (0.003 mg/mL, 30 min); 9.3 ± 1.4% in experiment [1] (0.003 mg/mL, 60 min); 11.4 ± 1.5% in experiment [1] (0.003 mg/mL, 90 min). The inhibition in experiment [1] (0.003 mg/mL, 120 min) worked out at 13 ± 1.6%; in experiment [1] (0.03 mg/mL, 0 min) it was 3.2 ± 2.4%; in experiment [1] (0.03 mg/mL, 5 min) it was 16.6 ± 3.1%; in experiment [1] (0.03 mg/mL, 15 min), 29.8 ± 3.4%; in experiment [1] (0.03 mg/mL, 30 min) it was 46.1 ± 3.9%; in experiment [1] (0.03 mg/mL, 60 min), 72.6 ± 6.2%. Also, the inhibition came to 97.7 ± 0.6% in experiment [1] (0.03 mg/mL, 90 min) and 96.7 ± 2.5% in experiment [1] (0.03 mg/mL, 120 min). In addition, the activity at 10 µM came out at 36.8 ± 8.6% in experiment [2] (Homo sapiens, HTB-54, 48 h) and 42.4 ± 4.9% in experiment [3]. The activity at 50 µM worked out at 27.5 ± 6.5% in experiment [2] (Homo sapiens, HTB-54, 48 h) and 47.9 ± 3.9% in experiment [3]. Besides, the concentration for half-maximal inhibition (IC50) in experiment [2] (setting [4]) was under 10 µM; in experiment [2] (read-out: IC50 HTB-54, Lung, MTT, 48 h), 8.4 ± 3.9 µM; in experiment [3] it was 11.5 ± 3.4 µM. This molecule had an SI in experiment [2] of over 11.9. Further, the “ROS PROFILE M2 (ROS(+) cells)” value in the experiment with DU-145 cells is listed as about 13%.

For orientation: inhibition means the share of the control response that was lost under treatment. Lower therefore signals little suppression. What is called IC50 is the point on the concentration scale where inhibition reaches its midpoint.
